ChEMBL document CHEMBL3608204, “neo-Clerodane Diterpenoids from Scutellaria barbata and Their Inhibitory Effects on LPS-Induced Nitric Oxide Production” (J Nat Prod, 2015)

Columns and labels:
RAW264.7 [1] = test: Inhibition of LPS-induced nitric oxide production in mouse RAW264.7 cells after 24 hrs by Griess reaction; type: functional, cell-based; conditions: RAW264.7, 24 h
RAW264.7 [2] = test: Cytotoxicity against mouse RAW264.7 cells assessed as cell viability at IC50 by colorimetric assay; type: cell-based

| IC50 (RAW264.7 [1]) [µM] | Compound | Activity (RAW264.7 [2]) |
| --- | --- | --- |
| 34.2 | CC1=CC[C@@H](OC(=O)c2ccccc2)C2[C@@]1(C)[C@@H](OC(=O)c1cccnc1)[C@H](O)[C@]1(C)O[C@@]3(CC[C@]21C)COC(=O)C3 (stereo not given in full) | Non-toxic |
| > 50 | CC1=CC[C@@H](OC(=O)c2ccccc2)C2[C@@]1(C)[C@@H](OC(=O)c1cccnc1)[C@H](OC(=O)c1ccccc1)[C@]1(C)O[C@]3(CC[C@]21C)COC(=O)C3 (stereo not given in full) | Non-toxic |
| > 50 | CC(=O)O[C@H]1[C@H](OC(C)=O)[C@]2(C)O[C@]3(CC[C@]2(C)C2[C@H](OC(=O)c4ccccc4)CC=C(C)[C@@]21C)COC(=O)C3 (stereo not given in full) | Non-toxic |
| 20.6 | C=C1CCCC2[C@@]1(C)[C@@H](OC(=O)c1ccccc1)[C@H](O)[C@]1(C)O[C@]3(COC(=O)C3)C[C@H](OC(=O)c3ccccc3)[C@]21C (stereo not given in full) | Non-toxic |
| > 50 | CC1=CCCC2[C@@]1(C)[C@@H](OC(=O)c1cccnc1)[C@H](O)[C@]1(C)O[C@]3(COC(=O)C3)C[C@H](OC(=O)c3cccnc3)[C@]21C (stereo not given in full) | Non-toxic |
| 22.8 | CC1=CCCC2[C@@]1(C)[C@@H](OC(=O)c1cccnc1)[C@H](OC(=O)c1ccccc1)[C@](C)(O)[C@]2(C)/C=C/C1=CC(=O)OC1 (stereo not given in full) | Non-toxic |
| 26.3 | CC1=CCCC2[C@@]1(C)[C@@H](OC(=O)c1cccnc1)[C@H](OC(=O)c1cccnc1)[C@](C)(O)[C@]2(C)/C=C/C1=CC(=O)OC1 (stereo not given in full) | Non-toxic |
| 27.7 | CC1=CCCC2[C@@]1(C)[C@@H](OC(=O)c1ccccc1)[C@H](OC(=O)c1cccnc1)[C@](C)(O)[C@]2(C)/C=C/C1=CC(=O)OC1 (stereo not given in full) | Non-toxic |
| > 50 | CC(=O)O[C@@H](CC1=C(O)C(=O)OC1)[C@]1(C)C2CCC=C(C)[C@]2(C)[C@@H](OC(=O)c2cccnc2)[C@H](O)[C@]1(C)O (stereo not given in full) | Non-toxic |
| > 50 | CC(=O)O[C@@H](CC1=C(O)C(=O)OC1)[C@]1(C)C2CCC=C(C)[C@]2(C)[C@@H](OC(=O)c2cccnc2)[C@H](OC(=O)c2cccnc2)[C@]1(C)O (stereo not given in full) | Non-toxic |
| > 50 | CC(=O)O[C@@H](CC1=C(O)C(=O)OC1)[C@]1(C)C2CCC=C(C)[C@]2(C)[C@@H](OC(=O)c2cccnc2)[C@H](OC(=O)c2ccccc2)[C@]1(C)O (stereo not given in full) | Non-toxic |
| 21.5 | CC1=CC[C@@H](OC(=O)c2cccnc2)C2[C@@]1(C)[C@@H](OC(=O)c1cccnc1)[C@H](OC(=O)c1ccccc1)[C@]1(C)O[C@]3(CC[C@]21C)COC(=O)C3 (stereo not given in full) | Non-toxic |
| 20.2 | CC1=CC[C@@H](OC(=O)c2ccccc2)C2[C@@]1(C)[C@@H](OC(=O)c1cccnc1)[C@H](OC(=O)c1cccnc1)[C@]1(C)O[C@]3(CC[C@]21C)COC(=O)C3 (stereo not given in full) | Non-toxic |
| 35.6 | CC1=CC[C@@H](OC(=O)c2cccnc2)C2[C@@]1(C)[C@@H](OC(=O)c1cccnc1)C[C@]1(C)O[C@@]3(CC[C@]21C)COC(=O)C3 (stereo not given in full) | Non-toxic |
| > 50 | C[C@@]12[C@@H](OC(=O)c3cccnc3)[C@H](OC(=O)c3ccccc3)[C@](C)(O)[C@](C)(/C=C/C3=CC(=O)OC3)[C@H]1CC=C[C@]2(C)O [SCUTEBARBATINE F] | Non-toxic |
